The nature of data set [1]: Blood disappearance rates in rats (FIG. 3). The data set is classed as in vivo, male Sprague-Dawley rats. As to conditions: rats, FIG. 3. An excerpt: These determinations were made in male Sprague-Dawley rats.
For data set [2] the following is noted: rabbits, FIG. 4. How it is done:
Organ biodistribution and acute toxicity studies were carried out in mice, blood disappearance and bile appearance rates were determined by sampling of bood or bile in rats, and renal excretion rates of the two Tc-2,3-bis(mercaptoacetamido)propanoic acid components, Tc-DTPA, and OIH were determined in rabbits because of greater ease of urine sampling. The HPLC-purified Tc-2,3-bis(mercaptoacetamido)propanoate components were used directly except for dilution as necessary. In general HPLC collected volumes were 1 to 1.5 ml and were not diluted for rabbit studies, were diluted 2- to 10-fold for rat studies and were diluted about 20-fold for mouse studies. In most cases determinations were made with simultaneous administration of OIH.
The rate of renal excretion was measured in New Zealand albino male rabbits. They were anesthetized with ketamine and xylazine and placed on a gamma camera provided with digital storage. After injection of 0.5 to 1 mCi of the Tc-99m complex containing 0.5μCi of OIH, images were collected on tape for 45 minutes. At 35 minutes after injection, urine was expelled from the bladder and the percentage of injected dose contained in the expelled urine was determined. Accumulation of bladder radioactivity was monitored by placing a region of interest over the bladder. The drop in the radioactivity in the bladder after expelling the urine sample (50-80% of the bladder radioactivity) allowed calibration of the bladder time-activity curve in terms of percent injected dose.

A further data set concerns plasma proteins. The data set is described as follows: Plasma protein binding, ultrafiltration. Format: in vitro ADME. As to conditions: plasma. How it is done: Studies of protein binding were carried out in plasma using an ultrafiltration method described at J.Nucl.Med. 22, 258-263, 1981.
Data set [3] can be described thus: Organ biodistribution time course of Tc-CO2-DADS components in mice (Table 1). The data set is classed as in vivo, Hal Cr female albino mice. As to conditions: mice; for Blood / Intestines / Kidneys / Liver / Stomach / Urine: mean of 6, listed as Tc--CO2 DADS--B.
Method: The time course of organ distribution was determined in groups of six Hal Cr female albino mice. They were injected with 0.10 ml (0.5 uCi) of the preparation. For comparison purposes, 0.2 uCi OIH was added to each injection. The mice were placed in metabolic cages for the collection of excreted urine. At indicated intervals after injection, the urethra was ligated and the mice killed with chloroform vapor. The organs were removed and counted in a dual channel counter with correction for I-131 crossover into the Tc-99m channel.
For data set [4] the following is noted: mice, mean of 6. How it is done: The time course of organ distribution was determined in groups of six Hal Cr female albino mice. They were injected with 0.10 ml (0.5 uCi) of the preparation. For comparison purposes, 0.2 uCi OIH was added to each injection. The mice were placed in metabolic cages for the collection of excreted urine. At indicated intervals after injection, the urethra was ligated and the mice killed with chloroform vapor.

The mark [5] stands for this setting: 120 min post injection, 120 min.

Molecules are shown by their SMILES. Entries after “also recorded” stand apart in the source; their conditions may differ. Like-named read-outs stand apart in the source and are kept apart here.

Turning to `O=C(O)C1C[N]2C(=O)C[S][99Tc-]23(=[O])[S]CC(=O)[N]13` (single isomer, unassigned) [Tc-2,3-bis(mercaptoacetamido)propanoate-B] [Tc-99m-2,3-bis(mercaptoacetamido)propanoate], the “blood disappearance in words” value in data set [1] was “faster than Tc-DTPA, was significantly slower than Tc-2,3-bis(mercaptoacetamido)propanoate-A”; in data set [1] (listed as component B), “significantly faster than Tc-DTPA”. The “renal excretion (urine appearance) in words” value in data set [2] was “significantly lower at early times, but similar to component A and OIH at 35 minutes”; in data set [2] (listed as Component B), “always faster than Tc-DTPA, but significantly slower than OIH or component A at early times”. For the same compound, the “binding to plasma proteins” value was 87% in the data set on plasma proteins (10 min) and 90% with plasma proteins (0.5 h). For the same compound, the “biliary excretion in words” value in data set [3] was “Negligible biliary excretion”. Moreover, the Blood in data set [3] (10 min post injection) turned out to be 3.64 percent injected dose; in data set [3] (120 min post injection) it was 0.14 percent injected dose. For the same compound, the results for the Intestines in data set [3] (10 min post injection) and in data set [3] (120 min post injection) were 1.00 percent injected dose and 0.21 percent injected dose, respectively. Also, the figures for the Kidneys in data set [3] (10 min post injection) and in data set [3] (120 min post injection) were 2.87 percent injected dose and 0.14 percent injected dose, respectively. Moreover, the Liver in data set [3] (10 min post injection) worked out at 14.83 percent injected dose; in data set [3] (120 min post injection), 3.71 percent injected dose. For the same compound, the values for the Stomach in data set [3] (10 min post injection) and in data set [3] (120 min post injection) were 0.13 percent injected dose and 0.02 percent injected dose, respectively. Moreover, the Urine in data set [3] (10 min post injection, 10 min) is 51.94 percent injected dose; in data set [3] (setting [5]) it was 79.16 percent injected dose. For the same compound, the “renal excretion / clearance in words” value in data set [3] (comparison with OIH or component A, listed as Tc-2,3-bis(mercaptoacetamido)proponoate-B) is recorded as “more slowly cleared; also recorded: renal excretion was only slightly lower than OIH determined simultaneously”.
In data set [4] (10 min post injection), `O=C(O)C1C(C(=O)O)[N]2C(=O)C[S][99Tc-]23(=[O])[S]CC(=O)[N]13` (single isomer, unassigned) [Tc--99m--2,3--(MERCAPTOACETAMIDO) SUCCINATE Component A] [Tc-99m chelate of 2,3-bis(mercaptoacetamido)succinic acid] gave a Blood of 10.13, an Intestines of 2.16, a Kidneys of 3.41 and a Liver of 5.80. This compound came in with a Stomach in data set [4] (10 min post injection) of 0.40. In data set [4] (10 min post injection, 10 min), this compound gave a Urine of 32.32. For the same compound, in data set [4] (120 min post injection), the Blood turned out to be 0.44, the Intestines is recorded as 0.30, the Kidneys is 7.44 and the Liver is 3.17. Besides, in data set [4] (120 min post injection), the Stomach is listed as 0.03. For the same compound, the Urine in data set [4] (setting [5]) stood at 77.73.
In data set [4] (10 min post injection), `O=C(O)C1C(C(=O)O)[N]2C(=O)C[S][99Tc-]23(=[O])[S]CC(=O)[N]13` (single isomer, unassigned) [Tc--99m--2,3--(MERCAPTOACETAMIDO) SUCCINATE Component B] [Tc-99m chelate of 2,3-bis(mercaptoacetamido)succinic acid] had a Blood of 16.21, an Intestines of 2.88, a Kidneys of 3.43 and a Liver of 7.06. This compound came in with a Stomach in data set [4] (10 min post injection) of 0.53. In data set [4] (10 min post injection, 10 min), this compound had a Urine of 19.32. Also, in data set [4] (120 min post injection), the Blood stood at 0.87, the Intestines came out at 8.85, the Kidneys worked out at 0.65 and the Liver turned out to be 2.33. In addition, in data set [4] (120 min post injection), the Stomach was 0.49. In data set [4] (setting [5]), this compound yielded a Urine of 66.92.
